We go through 28 molecules from ChEMBL document CHEMBL1134363 (J Med Chem, 2001).

The target in assay [1] is Sodium-dependent serotonin transporter (Rattus norvegicus, UniProt P31652). Kind of assay: In vitro binding affinity was determined against serotonin reuptake site of rat in presence of [3H]paroxetine radioligand.
Assay [2] has as its target T1, Adrenergic receptor alpha-1 (Rattus norvegicus, UniProt P15823+P23944+P43140).
T1 sequence (P15823 whole entry): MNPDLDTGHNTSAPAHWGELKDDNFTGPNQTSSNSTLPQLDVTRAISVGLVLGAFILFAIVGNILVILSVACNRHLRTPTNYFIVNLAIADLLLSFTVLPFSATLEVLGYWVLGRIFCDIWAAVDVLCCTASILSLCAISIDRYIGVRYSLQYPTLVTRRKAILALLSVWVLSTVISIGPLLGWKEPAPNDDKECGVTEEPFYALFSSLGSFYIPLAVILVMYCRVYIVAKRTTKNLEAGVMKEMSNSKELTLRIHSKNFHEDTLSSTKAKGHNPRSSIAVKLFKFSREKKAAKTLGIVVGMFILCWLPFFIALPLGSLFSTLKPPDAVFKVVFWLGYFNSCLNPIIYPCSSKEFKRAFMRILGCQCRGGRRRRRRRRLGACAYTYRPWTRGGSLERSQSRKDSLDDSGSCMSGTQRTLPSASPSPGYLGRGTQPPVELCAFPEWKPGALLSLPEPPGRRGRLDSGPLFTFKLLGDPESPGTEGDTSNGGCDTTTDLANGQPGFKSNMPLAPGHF
T1 sequence (P23944 whole entry): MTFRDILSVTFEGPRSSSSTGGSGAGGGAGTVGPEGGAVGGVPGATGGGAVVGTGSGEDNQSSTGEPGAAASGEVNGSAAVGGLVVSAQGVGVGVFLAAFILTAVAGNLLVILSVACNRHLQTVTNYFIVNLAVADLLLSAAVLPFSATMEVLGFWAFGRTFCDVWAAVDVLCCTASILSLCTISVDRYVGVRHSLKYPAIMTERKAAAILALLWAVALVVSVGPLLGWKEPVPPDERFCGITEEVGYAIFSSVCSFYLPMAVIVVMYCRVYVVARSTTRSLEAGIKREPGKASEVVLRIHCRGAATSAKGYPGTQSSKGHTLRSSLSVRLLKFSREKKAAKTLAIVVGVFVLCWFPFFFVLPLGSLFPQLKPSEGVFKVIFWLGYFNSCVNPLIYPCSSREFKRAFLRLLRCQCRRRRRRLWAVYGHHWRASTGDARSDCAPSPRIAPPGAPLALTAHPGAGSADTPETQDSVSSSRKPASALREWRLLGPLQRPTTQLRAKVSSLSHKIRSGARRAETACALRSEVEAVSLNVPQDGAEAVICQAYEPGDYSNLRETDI
T1 sequence (P43140 whole entry): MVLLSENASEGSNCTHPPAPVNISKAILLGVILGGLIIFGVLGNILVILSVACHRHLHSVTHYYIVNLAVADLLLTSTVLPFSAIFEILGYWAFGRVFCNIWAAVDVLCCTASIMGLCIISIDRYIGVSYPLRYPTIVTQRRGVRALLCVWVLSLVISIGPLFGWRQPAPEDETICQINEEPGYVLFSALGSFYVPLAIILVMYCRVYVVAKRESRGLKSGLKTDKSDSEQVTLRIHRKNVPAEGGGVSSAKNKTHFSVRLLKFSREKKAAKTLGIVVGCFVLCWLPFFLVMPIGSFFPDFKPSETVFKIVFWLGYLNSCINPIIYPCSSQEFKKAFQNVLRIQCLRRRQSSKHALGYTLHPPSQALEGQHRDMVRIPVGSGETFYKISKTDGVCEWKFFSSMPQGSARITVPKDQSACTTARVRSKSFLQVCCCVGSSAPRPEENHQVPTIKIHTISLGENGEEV
In words: In vitro binding affinity against alpha-1 adrenergic receptor of rat in presence of [3H]-prazosin radioligand. Format: protein assay.

The target of assay [3] is Norepinephrine transporter (Rattus norvegicus, UniProt Q9WTR4). Kind of assay: In vitro binding affinity was determined against NA (noradrenaline) reuptake site of rat in presence of [3H]nisoxetine radioligand.
Assay [4] has as its target T2, Adrenergic receptor alpha-2 (Rattus norvegicus, UniProt P22086+P19328+P22909).
T2 sequence (P22086 whole entry): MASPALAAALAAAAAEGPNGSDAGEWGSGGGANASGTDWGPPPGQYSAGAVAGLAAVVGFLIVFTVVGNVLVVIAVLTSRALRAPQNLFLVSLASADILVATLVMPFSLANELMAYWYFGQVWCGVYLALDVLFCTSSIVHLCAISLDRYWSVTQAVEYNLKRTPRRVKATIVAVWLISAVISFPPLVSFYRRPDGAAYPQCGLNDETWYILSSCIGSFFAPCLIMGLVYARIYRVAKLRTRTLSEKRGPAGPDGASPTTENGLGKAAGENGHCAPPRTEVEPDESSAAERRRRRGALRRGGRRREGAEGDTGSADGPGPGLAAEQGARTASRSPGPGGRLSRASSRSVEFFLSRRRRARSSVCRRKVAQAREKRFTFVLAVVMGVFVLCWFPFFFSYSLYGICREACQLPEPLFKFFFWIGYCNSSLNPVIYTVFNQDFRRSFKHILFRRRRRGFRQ
T2 sequence (P19328 whole entry): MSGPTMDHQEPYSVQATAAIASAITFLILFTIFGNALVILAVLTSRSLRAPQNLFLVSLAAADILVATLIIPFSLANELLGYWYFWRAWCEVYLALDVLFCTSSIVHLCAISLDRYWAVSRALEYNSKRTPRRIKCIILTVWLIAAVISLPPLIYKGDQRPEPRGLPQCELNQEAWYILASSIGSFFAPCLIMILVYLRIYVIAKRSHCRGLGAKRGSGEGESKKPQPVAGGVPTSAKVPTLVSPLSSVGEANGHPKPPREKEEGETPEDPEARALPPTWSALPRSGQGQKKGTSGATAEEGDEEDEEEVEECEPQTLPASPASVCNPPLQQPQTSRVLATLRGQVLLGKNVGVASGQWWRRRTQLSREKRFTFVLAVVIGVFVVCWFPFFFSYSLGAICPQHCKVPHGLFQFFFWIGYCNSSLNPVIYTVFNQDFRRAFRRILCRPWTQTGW
T2 sequence (P22909 whole entry): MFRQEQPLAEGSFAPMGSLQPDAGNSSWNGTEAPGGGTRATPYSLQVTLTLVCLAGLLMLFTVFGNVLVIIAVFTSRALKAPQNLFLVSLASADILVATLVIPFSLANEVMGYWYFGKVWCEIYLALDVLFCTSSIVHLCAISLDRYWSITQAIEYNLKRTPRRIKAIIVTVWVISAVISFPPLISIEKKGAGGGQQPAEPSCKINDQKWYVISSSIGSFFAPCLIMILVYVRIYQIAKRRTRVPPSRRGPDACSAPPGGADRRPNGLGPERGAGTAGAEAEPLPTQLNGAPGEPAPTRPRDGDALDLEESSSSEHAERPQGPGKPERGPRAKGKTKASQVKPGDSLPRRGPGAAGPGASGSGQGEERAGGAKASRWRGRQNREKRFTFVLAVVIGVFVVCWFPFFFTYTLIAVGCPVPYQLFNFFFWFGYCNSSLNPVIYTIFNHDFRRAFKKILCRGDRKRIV
Kind of assay: In vitro binding affinity against alpha-2 adrenergic receptor of rat in presence of [3H]-RX 821002 radioligand. Format: protein assay.

Each structure is given as a SMILES string. Where only a bound is given, the exact number is not on record here.

Chain of Sodium-dependent serotonin transporter (P31652 whole entry): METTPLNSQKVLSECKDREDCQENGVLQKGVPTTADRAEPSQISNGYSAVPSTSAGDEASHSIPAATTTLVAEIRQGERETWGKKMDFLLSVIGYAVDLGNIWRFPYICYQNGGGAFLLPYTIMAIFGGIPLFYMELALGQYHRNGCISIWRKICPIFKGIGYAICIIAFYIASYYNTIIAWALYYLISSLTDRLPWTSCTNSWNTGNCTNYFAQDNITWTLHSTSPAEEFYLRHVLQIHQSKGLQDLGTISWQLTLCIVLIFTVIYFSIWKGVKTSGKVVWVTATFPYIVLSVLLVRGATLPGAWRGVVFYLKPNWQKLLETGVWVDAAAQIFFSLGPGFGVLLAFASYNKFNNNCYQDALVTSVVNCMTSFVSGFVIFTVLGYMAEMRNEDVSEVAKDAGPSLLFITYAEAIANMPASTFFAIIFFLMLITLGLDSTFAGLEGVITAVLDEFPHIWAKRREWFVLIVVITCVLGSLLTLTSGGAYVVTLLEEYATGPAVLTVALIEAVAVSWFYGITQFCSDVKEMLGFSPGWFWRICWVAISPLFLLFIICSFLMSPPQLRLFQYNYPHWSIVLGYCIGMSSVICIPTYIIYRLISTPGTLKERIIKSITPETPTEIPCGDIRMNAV
Chain of Norepinephrine transporter (Q9WTR4 whole entry): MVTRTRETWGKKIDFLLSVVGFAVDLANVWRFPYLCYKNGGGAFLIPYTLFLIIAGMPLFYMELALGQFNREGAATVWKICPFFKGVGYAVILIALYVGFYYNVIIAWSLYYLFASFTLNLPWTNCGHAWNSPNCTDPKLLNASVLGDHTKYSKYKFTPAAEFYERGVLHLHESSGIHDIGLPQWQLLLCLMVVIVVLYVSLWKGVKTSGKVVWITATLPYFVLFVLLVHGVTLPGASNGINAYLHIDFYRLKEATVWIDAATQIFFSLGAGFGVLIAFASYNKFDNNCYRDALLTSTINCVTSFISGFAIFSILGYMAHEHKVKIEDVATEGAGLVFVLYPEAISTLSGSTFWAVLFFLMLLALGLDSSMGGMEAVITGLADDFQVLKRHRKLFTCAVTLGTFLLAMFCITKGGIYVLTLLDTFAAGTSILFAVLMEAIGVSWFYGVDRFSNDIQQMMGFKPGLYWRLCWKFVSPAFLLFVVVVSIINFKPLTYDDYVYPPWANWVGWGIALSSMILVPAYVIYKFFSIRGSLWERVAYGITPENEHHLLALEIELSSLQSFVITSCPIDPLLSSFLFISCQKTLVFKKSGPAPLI

Take `FC(F)(F)c1ccc2c(c1)C=C(CC1CN=CN1)CC2` (configuration not stated): the Ki in assay [1] is 158 nM; in assay [3], greater than 10000 nM. For the same molecule, the “Log Ki” value is -5.9 in assay [2] and -6.4 in assay [4].

As for `Cc1ccc2c(c1)C=C(CC1CN=CN1)CC2` (configuration not stated), the values for the inhibition constant Ki in assay [1] and in assay [3] were 63.1 nM and 1000 nM, respectively. The “Log Ki” value is recorded as -6.4 in assay [2] and -6.8 in assay [4].

As for `NC1=NC(CC2=Cc3ccccc3CC2)CN1` (configuration not stated), the Ki is 39.8 nM in assay [1] and 79.4 nM in assay [3]. Also, the “Log Ki” value is given as -7.2 in assay [2] and -6.5 in assay [4].

As for `C1=NCC(Cc2cc3cc(-c4ccccc4)ccc3o2)N1` (configuration not stated), the figures for the Ki in assay [1] and in assay [3] were greater than 10000 nM and 158 nM, respectively. For the same molecule, the entries for the “Log Ki” value in assay [2] and in assay [4] were less than -5.5 and less than -5, respectively.

`C1=C(Cc2c[nH]cn2)CCc2ccccc21`: the Ki in assay [1] is 631 nM; in assay [3] it was 794 nM. In addition, the “Log Ki” value in assay [2] is on record as -7.3; in assay [4], -8.9.

With `Fc1ccc2oc(CC3CN=CN3)cc2c1` (configuration not stated), the Ki in assay [1] was 158 nM; in assay [3], 794 nM. The “Log Ki” value in assay [4] is given as -7.

For the molecule `Cc1cc2c(cc1C)CC(CC1CN=CN1)C2` (configuration not stated), the Ki is 20 nM in assay [1] and 25.1 nM in assay [3]. In addition, the entries for the “Log Ki” value in assay [2] and in assay [4] were -6.7 and -7.6, respectively.

Take `CC1(CC2=Cc3ccccc3CC2)CN=CN1` (configuration not stated): the Ki in assay [1] was 63.1 nM; in assay [3] it was 316 nM. The “Log Ki” value in assay [2] is recorded as -5.9; in assay [4], -6.1.

`NC1=NCC(CC2=Cc3ccccc3CC2)O1` (configuration not stated): the Ki in assay [1] was 63.1 nM; in assay [3] it was 1000 nM. Further, in assay [4], the “Log Ki” value is recorded as -6.

With `COc1ccc2c(c1)C=C(CC1CN=CN1)CC2` (configuration not stated), the Ki in assay [1] was 200 nM; in assay [3] it was greater than 1000 nM. Also, the “Log Ki” value in assay [2] is listed as -5.6; in assay [4], -6.3.

On to `C1=NC[C@H](C2CC23Cc2ccccc2C3)N1` (some centres not stated), for which the results for the Ki in assay [1] and in assay [3] were 50.1 nM and 31.6 nM, respectively. In addition, the “Log Ki” value is -6.9 in assay [2] and -9.1 in assay [4].

Turning to `C1=NCC([C@H]2[C@@H]3Cc4ccccc4C[C@@H]32)N1` (some centres not stated), in assay [1], the Ki is 631 nM. Moreover, the “Log Ki” value in assay [2] and in assay [4] was -6.3 in each case.

As for `Cc1ccc2c(c1)CCC(CC1CN=C(N)O1)=C2` (configuration not stated), the Ki in assay [1] is 79.4 nM; in assay [3] it was greater than 1000 nM. The “Log Ki” value in assay [4] is -5.8.

As for `Cc1ccc2c(c1)C=C(CC1CN=C(N)O1)CC2` (configuration not stated), the Ki in assay [1] is 251 nM; in assay [3], greater than 1000 nM. For the same molecule, the “Log Ki” value was -6.6 in assay [2] and -5.8 in assay [4].

On to `C1=NCC(CC2COc3ccccc3O2)N1` (configuration not stated), for which the Ki is 1260 nM in assay [1] and 1000 nM in assay [3]. Further, the entries for the “Log Ki” value in assay [2] and in assay [4] were -6.2 and -7.5, respectively.

`C1=NC[C@@]2(CC[C@@H]3Cc4ccccc4C[C@H]3C2)N1` (relative stereo): the Ki in assay [1] was 25.1 nM; in assay [3], greater than 1000 nM. In addition, the “Log Ki” value was -6.2 in assay [2] and -6.1 in assay [4].

Consider `Clc1cccc2c1CC(CC1CN=CN1)CC2` (configuration not stated), for which the Ki in assay [1] was 5.01 nM; in assay [3], 100 nM. In addition, the “Log Ki” value in assay [2] is -6.5; in assay [4], -8.8.

Regarding `C1=NC(CC2CCc3ccccc3O2)CN1` (configuration not stated), the Ki is 501 nM in assay [1] and 794 nM in assay [3]. Besides, the figures for the “Log Ki” value in assay [2] and in assay [4] were -6.5 and -7.3, respectively.

Take `C1=NCC2(CC3(Cc4ccccc4C3)C2)N1`: the Ki in assay [1] is 6310 nM; in assay [3] it was greater than 10000 nM. Besides, the “Log Ki” value is recorded as -5.3 in assay [2] and -6.2 in assay [4].

For `NC1=NC(CC2=Cc3ccccc3CC2)CO1` (configuration not stated), the Ki in assay [1] is 158 nM; in assay [3], 501 nM. In addition, the “Log Ki” value in assay [4] was -7.3.

Take `Fc1cc2c(cc1F)CC(CC1CN=CN1)C2` (configuration not stated): the values for the inhibitory constant (Ki) in assay [1] and in assay [3] were 12.6 nM and 100 nM, respectively. The “Log Ki” value in assay [2] is -6.1; in assay [4] it was -7.3.

`Fc1ccc2c(c1)CC(CC1CN=CN1)C2` (configuration not stated): the “Log Ki” value is on record as -6.2 in assay [2] and -8.1 in assay [4]. Besides, the inhibition constant (Ki) in assay [3] is 316 nM.

For the molecule `C1=NCC(CC2CCc3ccccc3C2)N1` (configuration not stated), the Ki in assay [1] was 10 nM; in assay [3], 100 nM. Moreover, the “Log Ki” value in assay [2] is reported as -6.1; in assay [4], -7.8.

Regarding `Cc1ccc2c(c1)CCC(CC1CN=CN1)=C2` (configuration not stated), the values for the Ki in assay [1] and in assay [3] were 15.8 nM and greater than 1000 nM, respectively. In assay [4], the “Log Ki” value is -6.4.

Take `COc1cccc2c1C=C(CC1CN=CN1)CC2` (configuration not stated): the figures for the “Log Ki” value in assay [2] and in assay [4] were -6.8 and -7.6, respectively. The Ki in assay [3] is 1000 nM.

Consider `NC1=NCC(CC2=Cc3c(Cl)cccc3CC2)O1` (configuration not stated), for which the figures for the “Log Ki” value in assay [2] and in assay [4] were -6.5 and -6.2, respectively. Also, the Ki in assay [3] is greater than 1000 nM.

On to `C1=NC[C@@H](C[C@]23CCc4ccccc4C2C3)N1` (some centres not stated), for which the Ki in assay [1] is 20 nM; in assay [3], 316 nM. For the same molecule, the “Log Ki” value in assay [2] is recorded as -5.9; in assay [4], -7.2.

`C1=NC[C@@H]([C@H]2[C@@H]3CCc4ccccc4[C@@H]32)N1`: the Ki in assay [1] is greater than 3160 nM; in assay [3], 251 nM. The “Log Ki” value in assay [4] is -6.4.

Broadly, the Ki is a dissociation constant, usually derived from enzyme kinetics or from competition with a known ligand.
